Data on one compound can be found in patent publication US12351556B2, “Pyridin-2(1H)one derivatives, their preparation and their use for the treatment of pain” (INSTITUT NATIONAL DE LA SANTE ET DE LA RECHERCHE MEDICALE …, priority 2019, dated 2025).

The target of assay [1] is Aurora B (Homo sapiens (Human), UniProt Q96GD4). The assay can be described thus: ICKP protein kinase panel screening. The settings on record: duplicate assays, read-out: mean % residual activity. In kind it is biochemical. On the procedure:
(§1) FIG. 3 illustrates the human kinome. Compound 69 was evaluated at the International Center For Kinase Profiling (ICKP, Dundee, Scotland) toward a panel of 50 protein kinases that provide a representative sampling of the human kinome. The results were expressed as the mean percentage of residual activity at 10 μM concentration (duplicate assays). Small disks: ≥65%, larger disk: 19%. The black square indicates the kinome region containing protein kinases evaluated in a second screening (FIG. 4, Table 4). The tree was generated using the Kinome Render software, and the illustration reproduced courtesy of Cell Signaling Technology, Inc. (www.cellsignal.com) Chartier et al PeerJ 2013, 1:e126.
(§2) Results are expressed as the mean percentage of residual activity at 10 μM (Table 3) or 1 μM (Table 4). They are illustrated on FIGS. 3 and 4.
(§3) Studies were undertaken to identify the possible biological target(s) of compound 69. The activation in neurons of PK such as PKCγ, ERK or p38 MAPK can contribute to pain hypersensitivity. Therefore, it was decided to screen compound 69 toward a panel of 50 PKs that provide a representative sampling of the human kinome (FIG. 3, Table 3) (Biochem. J. 2007, 408, 297-315). In this panel, p38α MAPK was identified as the privileged target, with 19% of kinase residual activity at 10 μM compound concentration.

The target in assay [2] is EPH-A2 (Homo sapiens (Human), UniProt P29317). The assay can be described thus: ICKP protein kinase panel screening. In kind it is biochemical. The settings on record: duplicate assays, read-out: mean % residual activity. On the procedure: as §1, §2, §3
Assay [3] addresses MKK1 (Homo sapiens (Human), UniProt Q02750). Briefly: ICKP protein kinase panel screening. In kind it is biochemical. The settings on record: duplicate assays, read-out: mean % residual activity. The procedure:
as §1, §2, §3

Assay [4] addresses MLK3 (Homo sapiens (Human), UniProt Q16584). Briefly: ICKP protein kinase panel screening. In kind it is biochemical. The following applies: duplicate assays, read-out: mean % residual activity. On the procedure: as §1, §2, §3
Assay [5] deals with PKA (Homo sapiens (Human), UniProt P17612). The assay can be described thus: ICKP protein kinase panel screening. It counts as biochemical. The settings on record: duplicate assays, read-out: mean % residual activity. The procedure: as §1, §2, §3
Assay [6] has as its target PKD1 (Homo sapiens (Human), UniProt Q15139). Briefly: ICKP protein kinase panel screening. In kind it is biochemical. The following applies: duplicate assays, read-out: mean % residual activity. On the procedure: as §1, §2, §3
Assay [7] has as its target PLK1 (Homo sapiens (Human), UniProt P53350). Briefly: ICKP protein kinase panel screening. In kind it is biochemical. The settings on record: duplicate assays, read-out: mean % residual activity. The procedure: as §1, §2, §3
Assay [8] has as its target VEG-FR (Homo sapiens (Human), UniProt P17948). Briefly: ICKP protein kinase panel screening. In kind it is biochemical. The following applies: duplicate assays, read-out: mean % residual activity. On the procedure: as §1, §2, §3
In assay [9] the test system is panel of 50 protein kinases. Briefly: ICKP screening, whole panel of 50 protein kinases. It counts as biochemical, human. The settings on record: 10 μM. The procedure:
as §1, §2, §3

Assay [10] relates to panel of 13 protein kinases. Briefly: ICKP screening, whole panel of 13 protein kinases. It counts as biochemical, human. The settings on record: 1 μM. On the procedure:
FIG. 4 illustrates the studies carried out for compounds 67 and 69. Compounds 67 and 69 (FIG. 4B) were evaluated at the International Center For Kinase Profiling (ICKP, Dundee, Scotland) toward a panel of 13 protein kinases. The results (FIG. 4A) were expressed as the mean percentage of residual activity at 1 μM concentration (duplicate assays). Small disks: ≥90%, larger disk: 59%, for both compounds. The tree was generated using the Kinome Render software, and the illustration reproduced courtesy of Cell Signaling Technology, Inc. (www.cellsignal.com) Chartier et al PeerJ 2013, 1:e126.
as §2
The selectivity of compound 69 was evaluated at 1 μM toward another panel containing all four p38 MAPK isoforms, ERK1, ERK2 as well as other protein kinases close to p38α MAPK in the kinome phylogenetic tree (FIG. 4, Table 4). […] Its IC50 toward p38α MAPK was determined, showing a value in the micromolar range (IC50=3.0±0.1 μM).

Assay [11] has as its system inflammatory MA (face CFA model). The assay can be described thus: Face Complete Freund's Adjuvant (CFA) model of inflammatory mechanical allodynia. In kind it is in vivo. The following applies: rat. On the procedure:
FIG. 1 illustrates the results obtained by the intracisternal application of compounds 19-24, 66-72 and 74-82. These compounds prevent face MA in a rat model of inflammatory pain (Complete Freund's Adjuvant (CFA), n=4-6 rats for each compound). For this assay, compounds (5 μL at 100 μM) or control vehicle were intra-cisternally administred 30 min before CFA injection.
Face Complete Freund's Adjuvant (CFA) Model.
CFA (Becton Dickinson) was dissolved in saline solution containing Tween 80 and paraffin oil and conserved at 4° C. For the behavioral tests, animals were briefly (<2 min) anesthetized using a mask with 2% isoflurane and received a subcutaneous injection of 25 μL of CFA (2.5 mg/kg) solution into the right vibrissa pad using a 27 Ga needle coupled to a 25 μL Hamilton syringe, as described previously. After injection, animals were awakened from anesthesia and placed in the behavioral experimental room, followed by a 120 min mechanical testing period.
Intracisternal Injection:
For investigating the effects of synthetized compounds upon mechanical allodynia, animals were briefly (<2 min) anesthetized using a mask with 2% isoflurane and received an intracisternal injection of 5 μL of compound (100 μM) or vehicle alone (saline+1% DMSO) using a 10 μL Hamilton syringe. After recovery (<2 min), rats were placed in an observation field (0.6×0.6 m square) under red light for a period test. 6-g von Frey filament was gently applied every 15 or 30 min onto the orofacial region by a first experimenter. The behavioral responses were observed and quantified by a second experimenter (see below).
Behavioral Responses to Normally Innocuous (6-g Von Frey Filament) Mechanical Stimulation.
The behavioral responses procedure was previously developed by Vos et al. 1994. A rat's response to mechanical stimulation consisted of one or more of the following elements: (1) detection, rat turn head toward stimulus; (2) withdrawal reaction, rat pull paw away or turn head away or pull it briskly backward when stimulation is applied (a withdrawal reaction is assumed to include a detection element preceding the head withdrawal and therefore consists of two responses elements); (3) escape/attack, rats avoid further contact with the stimulus, either passively by moving their bodies away from the stimulus, or actively by attacking the tip of the […]; (4) asymmetric grooming, rats display an uninterrupted series of at least three wash strokes directed to the stimulated area.
The in vivo efficacy of some compounds was evaluated on a rat model of inflammatory MA (face CFA model; Alba-Delgado et al J. Neurosci. 2018, 38, 10489-10504) (FIG. 1). After receiving a subcutaneous injection of 25 μL of CFA (2.5 mg/kg) into the right vibrissa pad, rats develop a MA that lasts days. […] In this model of inflammatory MA, MA was suppressed in compound 69 treated rats, in comparison to animals treated with vehicle (FIG. 2A).

The test system is the same in assay [12]. The assay is described as above. In kind it is in vivo. The settings on record: rat, 10 mg/kg intra-peritoneally, 30 min before CFA.

Entries after “also recorded” stand apart in the source; their conditions may differ. Bounds are passed on as bounds.

Sequence of MKK1 (Q02750 whole entry): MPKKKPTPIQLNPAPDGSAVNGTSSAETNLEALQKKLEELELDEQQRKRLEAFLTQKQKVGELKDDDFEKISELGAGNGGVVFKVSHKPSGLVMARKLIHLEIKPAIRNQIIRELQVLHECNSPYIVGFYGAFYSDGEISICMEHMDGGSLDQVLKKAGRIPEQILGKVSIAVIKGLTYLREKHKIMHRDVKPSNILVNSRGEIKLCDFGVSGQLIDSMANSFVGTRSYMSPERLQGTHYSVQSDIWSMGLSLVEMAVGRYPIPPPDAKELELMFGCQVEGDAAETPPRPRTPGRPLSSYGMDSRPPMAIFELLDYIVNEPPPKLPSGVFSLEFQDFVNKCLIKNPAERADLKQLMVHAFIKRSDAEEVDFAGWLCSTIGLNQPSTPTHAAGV
Sequence of PKD1 (Q15139 whole entry): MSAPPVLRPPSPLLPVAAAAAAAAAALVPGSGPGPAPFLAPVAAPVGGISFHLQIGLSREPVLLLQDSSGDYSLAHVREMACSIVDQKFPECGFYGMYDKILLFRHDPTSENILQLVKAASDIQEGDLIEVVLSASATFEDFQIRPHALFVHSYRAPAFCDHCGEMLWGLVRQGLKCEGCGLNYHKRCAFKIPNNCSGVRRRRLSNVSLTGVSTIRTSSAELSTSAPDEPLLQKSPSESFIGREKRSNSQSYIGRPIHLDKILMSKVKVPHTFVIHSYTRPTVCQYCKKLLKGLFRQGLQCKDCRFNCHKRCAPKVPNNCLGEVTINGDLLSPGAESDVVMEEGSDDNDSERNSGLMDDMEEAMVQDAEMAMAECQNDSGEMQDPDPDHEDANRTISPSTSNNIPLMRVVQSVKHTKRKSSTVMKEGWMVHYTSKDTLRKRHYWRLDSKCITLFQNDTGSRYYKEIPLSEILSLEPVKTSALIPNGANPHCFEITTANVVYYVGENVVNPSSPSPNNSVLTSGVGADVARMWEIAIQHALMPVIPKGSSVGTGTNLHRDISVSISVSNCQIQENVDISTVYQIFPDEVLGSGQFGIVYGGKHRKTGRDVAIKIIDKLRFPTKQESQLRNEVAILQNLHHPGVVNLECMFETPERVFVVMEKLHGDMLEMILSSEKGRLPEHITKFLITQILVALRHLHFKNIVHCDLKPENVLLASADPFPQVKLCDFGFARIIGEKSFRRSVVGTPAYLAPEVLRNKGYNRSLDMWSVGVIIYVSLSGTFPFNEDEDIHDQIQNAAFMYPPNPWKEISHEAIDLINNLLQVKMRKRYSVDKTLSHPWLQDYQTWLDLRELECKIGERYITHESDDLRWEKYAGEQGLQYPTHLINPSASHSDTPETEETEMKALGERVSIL
Sequence of VEG-FR (P17948 27-1338): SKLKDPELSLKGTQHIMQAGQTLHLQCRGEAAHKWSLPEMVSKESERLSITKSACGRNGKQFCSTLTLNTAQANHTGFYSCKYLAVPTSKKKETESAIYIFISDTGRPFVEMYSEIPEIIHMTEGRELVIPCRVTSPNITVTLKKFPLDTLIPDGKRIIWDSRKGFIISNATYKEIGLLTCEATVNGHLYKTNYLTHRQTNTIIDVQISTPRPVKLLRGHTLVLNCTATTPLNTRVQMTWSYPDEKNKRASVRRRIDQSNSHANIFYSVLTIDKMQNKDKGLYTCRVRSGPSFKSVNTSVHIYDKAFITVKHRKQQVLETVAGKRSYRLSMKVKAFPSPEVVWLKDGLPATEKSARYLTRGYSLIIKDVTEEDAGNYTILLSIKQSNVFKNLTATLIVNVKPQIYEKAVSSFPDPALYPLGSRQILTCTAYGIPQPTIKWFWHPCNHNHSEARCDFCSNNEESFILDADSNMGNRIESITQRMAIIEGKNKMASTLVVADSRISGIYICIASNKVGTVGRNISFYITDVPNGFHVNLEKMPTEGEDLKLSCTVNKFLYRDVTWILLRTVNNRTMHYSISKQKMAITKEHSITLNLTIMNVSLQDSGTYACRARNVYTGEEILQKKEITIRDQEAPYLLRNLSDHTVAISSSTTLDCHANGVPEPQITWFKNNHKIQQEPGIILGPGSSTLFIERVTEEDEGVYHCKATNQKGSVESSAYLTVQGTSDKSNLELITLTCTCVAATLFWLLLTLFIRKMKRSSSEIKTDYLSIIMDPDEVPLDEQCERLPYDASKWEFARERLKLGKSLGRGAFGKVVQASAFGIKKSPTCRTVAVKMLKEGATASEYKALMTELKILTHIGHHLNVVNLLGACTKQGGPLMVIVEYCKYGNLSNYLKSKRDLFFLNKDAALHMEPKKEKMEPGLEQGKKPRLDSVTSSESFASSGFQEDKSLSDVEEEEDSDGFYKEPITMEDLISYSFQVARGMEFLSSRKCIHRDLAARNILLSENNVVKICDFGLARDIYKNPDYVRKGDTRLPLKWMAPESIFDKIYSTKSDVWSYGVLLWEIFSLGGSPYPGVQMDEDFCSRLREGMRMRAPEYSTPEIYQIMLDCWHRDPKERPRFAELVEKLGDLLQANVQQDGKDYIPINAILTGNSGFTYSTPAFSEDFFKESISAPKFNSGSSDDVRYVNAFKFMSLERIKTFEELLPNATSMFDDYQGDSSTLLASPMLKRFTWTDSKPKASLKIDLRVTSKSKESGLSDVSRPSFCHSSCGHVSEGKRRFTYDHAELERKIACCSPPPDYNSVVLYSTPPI
Sequence of MLK3 (Q16584 whole entry): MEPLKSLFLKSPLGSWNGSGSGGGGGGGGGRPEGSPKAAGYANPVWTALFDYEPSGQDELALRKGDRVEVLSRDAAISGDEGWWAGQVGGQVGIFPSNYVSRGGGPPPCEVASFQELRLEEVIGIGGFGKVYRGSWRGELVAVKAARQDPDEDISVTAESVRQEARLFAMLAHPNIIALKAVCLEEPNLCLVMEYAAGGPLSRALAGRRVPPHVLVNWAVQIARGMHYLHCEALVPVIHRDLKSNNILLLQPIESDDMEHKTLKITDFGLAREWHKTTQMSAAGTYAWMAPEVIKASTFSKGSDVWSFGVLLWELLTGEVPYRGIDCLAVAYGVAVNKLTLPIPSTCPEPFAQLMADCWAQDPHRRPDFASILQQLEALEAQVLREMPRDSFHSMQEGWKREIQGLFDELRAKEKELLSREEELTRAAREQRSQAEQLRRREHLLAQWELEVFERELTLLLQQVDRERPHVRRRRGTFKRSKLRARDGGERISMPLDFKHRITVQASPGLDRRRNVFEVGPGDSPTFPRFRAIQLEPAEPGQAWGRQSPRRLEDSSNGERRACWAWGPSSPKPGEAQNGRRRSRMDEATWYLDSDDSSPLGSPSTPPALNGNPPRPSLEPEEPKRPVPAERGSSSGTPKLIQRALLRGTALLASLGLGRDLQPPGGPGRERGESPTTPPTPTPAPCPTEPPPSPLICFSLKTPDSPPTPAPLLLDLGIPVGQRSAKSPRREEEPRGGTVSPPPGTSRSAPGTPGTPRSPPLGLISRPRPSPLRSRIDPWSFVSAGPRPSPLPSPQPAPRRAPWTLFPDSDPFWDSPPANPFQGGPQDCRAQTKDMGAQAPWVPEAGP
Sequence of PLK1 (P53350 whole entry): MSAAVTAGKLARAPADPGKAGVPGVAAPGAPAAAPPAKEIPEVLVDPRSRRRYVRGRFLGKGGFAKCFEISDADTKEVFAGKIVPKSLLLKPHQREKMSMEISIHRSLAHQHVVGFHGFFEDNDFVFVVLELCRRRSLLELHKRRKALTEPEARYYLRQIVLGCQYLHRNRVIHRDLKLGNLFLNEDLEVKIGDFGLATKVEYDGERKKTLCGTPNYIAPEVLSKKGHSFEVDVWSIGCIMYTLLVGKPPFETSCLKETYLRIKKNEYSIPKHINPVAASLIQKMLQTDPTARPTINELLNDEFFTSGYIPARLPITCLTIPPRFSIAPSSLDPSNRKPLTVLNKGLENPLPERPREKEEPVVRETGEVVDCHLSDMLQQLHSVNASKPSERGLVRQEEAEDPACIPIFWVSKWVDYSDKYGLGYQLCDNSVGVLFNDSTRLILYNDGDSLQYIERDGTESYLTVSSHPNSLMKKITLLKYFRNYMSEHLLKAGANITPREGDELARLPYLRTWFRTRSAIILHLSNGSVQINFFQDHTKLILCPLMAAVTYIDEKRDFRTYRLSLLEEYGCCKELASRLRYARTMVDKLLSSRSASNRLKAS
Sequence of EPH-A2 (P29317 24-976): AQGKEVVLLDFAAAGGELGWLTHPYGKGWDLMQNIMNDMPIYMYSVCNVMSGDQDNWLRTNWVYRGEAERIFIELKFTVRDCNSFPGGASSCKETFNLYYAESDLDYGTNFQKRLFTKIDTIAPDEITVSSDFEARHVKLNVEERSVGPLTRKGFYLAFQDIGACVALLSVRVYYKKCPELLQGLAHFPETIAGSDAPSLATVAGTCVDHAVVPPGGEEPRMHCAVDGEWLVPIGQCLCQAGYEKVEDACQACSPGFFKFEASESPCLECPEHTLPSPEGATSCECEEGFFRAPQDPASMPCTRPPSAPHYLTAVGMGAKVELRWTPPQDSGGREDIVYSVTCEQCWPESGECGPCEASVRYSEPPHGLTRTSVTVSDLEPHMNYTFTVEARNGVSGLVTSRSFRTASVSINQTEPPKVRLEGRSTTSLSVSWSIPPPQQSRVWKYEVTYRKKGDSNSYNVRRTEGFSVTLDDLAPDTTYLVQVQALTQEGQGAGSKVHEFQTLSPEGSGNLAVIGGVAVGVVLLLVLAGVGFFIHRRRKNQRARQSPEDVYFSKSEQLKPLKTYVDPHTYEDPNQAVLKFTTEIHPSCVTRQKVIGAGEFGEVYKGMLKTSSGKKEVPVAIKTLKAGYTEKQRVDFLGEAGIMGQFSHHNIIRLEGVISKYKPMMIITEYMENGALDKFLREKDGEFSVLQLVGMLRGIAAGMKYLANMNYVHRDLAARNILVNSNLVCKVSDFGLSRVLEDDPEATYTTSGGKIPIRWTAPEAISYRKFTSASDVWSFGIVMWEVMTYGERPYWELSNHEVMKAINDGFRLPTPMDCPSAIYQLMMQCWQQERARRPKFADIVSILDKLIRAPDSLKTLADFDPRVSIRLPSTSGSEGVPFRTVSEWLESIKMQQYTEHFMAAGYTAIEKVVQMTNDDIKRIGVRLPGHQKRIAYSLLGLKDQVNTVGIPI

In the case of `O=c1[nH]cc(Nc2ccccc2)cc1-c1ccccc1Br` [Compound 69, 3-(2-Bromophenyl)-5-(phenylamino)pyridin-2(1H)-one], the remaining activity at 10 µM in [1] came to 77%; in [2] it was 109%; in assay [3], 112%; in assay [4], 109%; in [5], 94%; in [6] it was 92%. Also, the remaining activity at 10 µM in assay [7] is 113%; in assay [8], 94%. Also, the entries for the “mean percentage of residual activity, other kinases of the panel (small disks)” value in [9] (all kinases except p38α MAPK) and in assay [10] (all kinases except p38α MAPK) were not below 65% and not below 90%, respectively. In assay [9] (panel of 50 kinases), the “selectivity for p38α MAPK over the other protein kinases” value is given as “highly selective”. The “selectivity for p38α MAPK over the other protein kinases incl. p38 isoforms” value in assay [10] (panel of 13 kinases) is “selective of p38α MAPK over the other protein kinases tested in this panel; also recorded: selective p38α MAPK inhibitor”. In assay [11] (intracisternal 5 μL at 10 μM or 100 μM, 30 min before CFA, skepinone 60 μg/rat), the “prevention of inflammatory MA (allodynic score), compared with skepinone” value was “completely suppressed; also recorded: much more potent than skepinone”. Besides, the “prevention of inflammatory MA (allodynic score, 6-g von Frey filament)” value in [11] (intracisternal 5 μL at 100 μM, 30 min before CFA) was “most active; also recorded: high activities; also recorded: potent preventing effect; also recorded: completely suppressed”. The “inhibition of inflammatory MA” value in assay [11] (intracisternal 5 μL at 100 μM, 30 min before CFA injection) is 99%. For the same compound, the “prevention of inflammatory MA (allodynic score), systemic application” value in assay [12] is “completely suppressed”.
